Patent US5859257A, “Isoxazole compounds as cyclooxygenase inhibitors” (G. D. Searle & Co., priority 1996, dated 1999)

Tests used:
[1] = target: COX-2; test: Evaluation of COX-2 activity in vitro (PGE2 ELISA, recombinant enzyme); format: biochemical, human or murine; details: arachidonic acid 10 μM, pH 8.0, pre-incubation 10-20 minutes
Experimental: The COX-2 inhibition activity of the compounds of this invention illustrated in the Examples was determined by the following methods.
(§1) a. Preparation of recombinant COX baculoviruses
(§2) Recombinant COX-1 and COX-2 were prepared as scribed by Gierse et al, [J. Biochem., 305, 479-84 (1995)]. […] Recombinant baculoviruses were isolated by transfecting 4 μg of baculovirus transfer vector DNA into SF9 insect cells (2×10^8) along with 200 ng of linearized baculovirus plasmid DNA by the calcium phosphate method. See M. D. Summers and G. E. Smith, A Manual of Methods for Baculovirus Vectors and Insect Cell Culture Procedures, Texas Agric. Exp. Station Bull. 1555 (1987). Recombinant viruses were purified by three rounds of plaque purification and high titer (10^7 -10^8 pfu/mL) stocks of virus were prepared. For large scale production, SF9 insect cells were infected in 10 liter fermentors (0.5×10^6 /mL) with the recombinant baculovirus stock such that the multiplicity of infection was 0.1. After 72 hours the cells were centrifuged and the cell pellet homogenized in Tris/Sucrose (50 mM: 25%, pH 8.0) containing 1% 3-[(3-cholamidopropyl)dimethylammonio]-1-propanesulfonate (CHAPS). The nomogenate was centrifuged at 10,000×G for 30 minutes, and the resultant supernatant was stored at -80° C. before being assayed for COX activity.
(§3) COX activity was assayed as PGE2 formed/μg protein/time using an ELISA to detect the prostaglandin released. CHAPS-solubilized insect cell membranes containing the appropriate COX enzyme were incubated in a potassium phosphate buffer (50 mM, pH 8.0) containing epinephrine, phenol, and heme with the addition of arachidonic acid (10 μM). […] Any reaction between the arachidonic acid and the enzyme was stopped after ten minutes at 37° C./room temperature by transferring 40 μl of reaction mix into 160 μl ELISA buffer and 25 μM indomethacin. The PGE2 formed was measured by standard ELISA technology (Cayman Chemical).

[2] = target: COX-1; test: Evaluation of COX-1 activity in vitro (PGE2 ELISA, recombinant enzyme); format: biochemical, human or murine; details: arachidonic acid 10 μM, pH 8.0, pre-incubation 10-20 minutes
Experimental: as §1, §2, §3

[3] = tested on: rat paw edema; test: Rat Carrageenan Foot Pad Edema Test; format: in vivo, Male Sprague-Dawley rats; details: @ 10 mg/kg body weight, oral, 3 h after carrageenan
Experimental: Rat Carrageenan Foot Pad Edema Test
Male Sprague-Dawley rats were selected in each group so that the average body weight was as close as possible. Rats were fasted with free access to water for over sixteen hours prior to the test. […] One hour later a subplantar injection of 0.1 mL of 1% solution of carrageenan/sterile 0.9% saline was administered and the volume of the injected foot was measured with a displacement plethysmometer connected to a pressure transducer with a digital indicator. Three hours after the injection of the carrageenan, the volume of the foot was again measured.

`NS(=O)(=O)c1ccc(-c2c(-c3ccccc3)noc2CCCO)cc1` [Example 1o, 4-[5-(3-hydroxypropyl)-3-phenylisoxazol-4-yl]benzenesulfonamide] was tested, and the IC50 [1] was 0.1 µM and the IC50 [2] was > 100 µM.
`CSc1onc(-c2ccccc2)c1-c1ccc(S(N)(=O)=O)cc1` [Example 58, 4-[5-Methylthio-3-phenylisoxazol-4-yl]benzenesulfonamide] was tested, and the IC50 [1] was < 0.1 µM and the IC50 [2] was 14 µM.
With `NS(=O)(=O)c1ccc(-c2c(-c3ccccc3)noc2O)cc1` [Example 12, 4-[5-Hydroxy-3-phenylisoxazol-4-yl]benzenesulfonamide] the IC50 [1] was 2.5 µM and the IC50 [2] was > 100 µM.
`COc1ccc(-c2noc(C)c2-c2ccc(S(C)(=O)=O)cc2)cc1Cl` [Example 7, 3-(3-Chloro-4-methoxyphenyl)-5-methyl-4-[4-methylsulfonylphenyl]isoxazole] was tested, and the IC50 [1] was 86.7 µM and the IC50 [2] was > 100 µM.
For `CCCCc1noc(-c2ccccc2)c1-c1ccc(S(N)(=O)=O)cc1` [Example 18, 4-[3-Butyl-5-phenylisoxazol-4-yl]benzenesulfonamide], the IC50 [1] was 0.6 µM and the IC50 [2] was > 100 µM.
In the case of `NS(=O)(=O)c1ccc(-c2c(-c3ccccc3)noc2COCC(=O)O)cc1` [Example 35, [[4-[4-(Aminosulfonyl)phenyl]-3-phenylisoxazol-5-yl]-methoxy]acetic acid], the IC50 [1] is reported as 5.1 µM and the IC50 [2] is reported as > 100 µM.
`NS(=O)(=O)c1ccc(-c2c(-c3ccccc3)noc2OS(=O)(=O)C(F)(F)F)cc1` [Example 39, 4-[5-Trifluoromethansulfonoxy-3-phenylisoxazol-4-yl]benzenesulfonamide] was tested, and the IC50 [1] was 0.9 µM and the IC50 [2] was > 100 µM.
For `CSc1ccc(-c2noc(C)c2-c2ccncc2)cc1` [Example 40, [5-Methyl-3-(4-methylthiophenyl)isoxazol-4-yl]-4-pyridine], the IC50 [1] was 91 µM and the IC50 [2] was 2.3 µM.
In the case of `CCCc1onc(-c2ccccc2)c1-c1ccc(S(N)(=O)=O)cc1` [Example 1b, 4-[5-propyl-3-phenylisoxazol-4-yl]benzenesulfonamide], the IC50 [1] is reported as < 0.1 µM and the IC50 [2] is reported as 13.2 µM.
In the case of `COCc1onc(-c2ccccc2)c1-c1ccc(S(N)(=O)=O)cc1` [Example 1n, 4-[5-methoxymethyl-3-phenylisoxazol-4-yl]benzenesulfonamide], the IC50 [1] is reported as < 0.1 µM and the IC50 [2] is reported as > 100 µM.
`COc1ccc(-c2noc(C(F)F)c2-c2ccc(S(N)(=O)=O)cc2)cc1` [Example 45, 4-[5-Difluoromethyl-3-(4-methoxyphenyl)isoxazol-4-yl]benzenesulfonamide] was tested, and the IC50 [1] was < 0.1 µM and the IC50 [2] was 16 µM.
With `Cc1noc(-c2ccc(S(N)(=O)=O)cc2)c1-c1ccccc1` [Example 23, 4-[3-Methyl-4-phenylisoxazol-5-yl]benzenesulfonamide] the IC50 [1] was 0.2 µM and the IC50 [2] was 56 µM.
With `NS(=O)(=O)c1ccc(-c2c(-c3ccccc3)noc2Cl)cc1` [Example 38, 4-[5-Chloro-3-phenylisoxazol-4-yl]benzenesulfonamide] the IC50 [1] was < 0.1 µM and the IC50 [2] was > 100 µM.
`CC(C)Cc1onc(-c2ccccc2)c1-c1ccc(S(N)(=O)=O)cc1` [Example 1e, 4-[5-isobutyl-3-phenylisoxazol-4-yl]benzenesulfonamide] was tested, and the IC50 [1] was < 0.1 µM and the IC50 [2] was 37.7 µM.
In the case of `Cc1ccc(-c2noc(C)c2-c2ccc(S(N)(=O)=O)cc2)cc1Cl` [Example 4d, 4-[3-(3-chloro-4-methylphenyl)-5-methyl-isoxazol-4-yl]benzenesulfonamide], the IC50 [1] is reported as < 0.1 µM and the IC50 [2] is reported as 44 µM.
For `CS(=O)(=O)c1ccc(-c2c(-c3ccccc3)noc2C(F)F)cc1` [Example 47, 5-Difluoromethyl-4-(4-methylsulfonylphenyl)-3-phenylisoxazole], the “RAT PAW EDEMA % Inhibition” value [3] was 24%, the IC50 [1] was < 0.1 µM and the IC50 [2] was > 100 µM.
`C[S+]([O-])c1onc(-c2ccccc2)c1-c1ccc(S(N)(=O)=O)cc1` (centres unmarked) [Example 59, 4-[5-Methylsulfinyl-3-phenylisoxazol-4-yl]benzenesulfonamide] was tested, and the IC50 [1] was < 0.1 µM and the IC50 [2] was > 100 µM.
In the case of `Cc1onc(-c2ccc(Cl)cc2)c1-c1ccc(S(N)(=O)=O)cc1` [Example 4a, 4-[3-(4-chlorophenyl)-5-methyl-isoxazol-4-yl]benzenesulfonamide], the IC50 [1] is reported as < 0.1 µM and the IC50 [2] is reported as 90.5 µM.
With `Cc1onc(-c2ccc(Cl)c(Cl)c2)c1-c1ccc(S(N)(=O)=O)cc1` [Example 67, 4-[5-Methyl-3-(3,4-dichlorophenyl)isoxazol-4-yl]benzenesulfonamide] the IC50 [1] was 0.3 µM and the IC50 [2] was 36 µM.
With `Cc1noc(-c2cccc(Cl)c2)c1-c1ccc(S(N)(=O)=O)cc1` [Example 24, 4-[5-(3-Chlorophenyl)-3-methylisoxazol-4-yl]benzenesulfonamide] the IC50 [1] was 8.4 µM and the IC50 [2] was > 100 µM.
For `N#Cc1onc(-c2ccccc2)c1-c1ccc(S(N)(=O)=O)cc1` [Example 37, 4-[5-Cyano-3-phenylisoxazol-4-yl]benzenesulfonamide], the IC50 [1] was 20 µM and the IC50 [2] was > 100 µM.
For `CS(=O)(=O)c1ccc(-c2c(-c3ccccc3)noc2CC(=O)O)cc1` [Example 8, [4-[4-(methylsulfonyl)phenyl]-3-phenylisoxazol-5-yl]acetic acid], the IC50 [1] was > 100 µM and the IC50 [2] was > 100 µM.
For `NS(=O)(=O)c1ccc(-c2c(CC(O)c3ccc(Cl)cc3)noc2-c2ccccc2)cc1` (centres unmarked) [Example 28, 4-[3-[2-(4-Chlorophenyl)-2-hydroxyethyl]-5-phenylisoxazol-4-yl]benzenesulfonamide], the IC50 [1] was 0.1 µM and the IC50 [2] was > 100 µM.
`Cc1onc(-c2cccnc2)c1-c1ccc(S(N)(=O)=O)cc1` [Example 4e, 4-[5-methyl-3-(3-pyridyl)isoxazol-4-yl]benzenesulfonamide] was tested, and the IC50 [1] was 2 µM and the IC50 [2] was > 100 µM.
`CC(C)c1onc(-c2ccccc2)c1-c1ccc(S(N)(=O)=O)cc1` [Example 1c, 4-[5-isopropyl-3-phenylisoxazol-4-yl]benzenesulfonamide] was tested, and the IC50 [1] was < 0.1 µM and the IC50 [2] was 6.2 µM.
For `Cc1onc(-c2cc(F)cc(F)c2)c1-c1ccc(S(N)(=O)=O)cc1` [Example 42, 4-[3-(3,5-Difluorophenyl)-5-methylisoxazol-4-yl]benzenesulfonamide], the IC50 [1] was 22.5 µM and the IC50 [2] was > 100 µM.
For `CCCc1noc(-c2ccccc2)c1-c1ccc(S(N)(=O)=O)cc1` [Example 16, 4-[5-Phenyl-3-propylisoxazol-4-yl]benzenesulfonamide], the IC50 [1] was 3.1 µM and the IC50 [2] was > 100 µM.
In the case of `Cc1noc(-c2ccc(F)cc2)c1-c1ccc(S(N)(=O)=O)cc1` [Example 21, 4-[5-(4-fluorophenyl)-3-methylisoxazol-4-yl]benzenesulfonamide], the IC50 [1] is reported as 5.2 µM and the IC50 [2] is reported as > 100 µM.
In the case of `NS(=O)(=O)c1ccc(-c2c(-c3ccccc3)noc2COCCO)cc1` [Example 60, 4-[5-(2-Hydroxyethyl)oxymethyl-3-phenylisoxazol-4-yl]benzenesulfonamide], the IC50 [1] is reported as 0.2 µM and the IC50 [2] is reported as > 100 µM.
For `COc1ccc(-c2noc(CC(=O)O)c2-c2ccc(S(C)(=O)=O)cc2)cc1F` [Example 6, [3-[3-Fluoro-4-methoxyphenyl]-4-[4-(methylsulfonyl)phenyl]isoxazol-5-yl]acetic acid], the IC50 [1] was 35.7 µM and the IC50 [2] was > 100 µM.
For `NS(=O)(=O)c1ccc(-c2c(CO)noc2-c2ccccc2)cc1` [Example 25, 4-[3-Hydroxymethyl-5-phenylisoxazol-4-yl]benzenesulfonamide], the IC50 [1] was 79 µM and the IC50 [2] was > 100 µM.
For `CCCCc1onc(-c2ccccc2)c1-c1ccc(S(N)(=O)=O)cc1` [Example 1d, 4-[5-butyl-3-phenylisoxazol-4-yl]benzenesulfonamide], the IC50 [1] was < 0.1 µM and the IC50 [2] was 25.8 µM.
With `CCCc1onc(-c2ccccc2)c1-c1ccc(S(=O)(=O)O)cc1` [Example 1m, 4-[5-propyl-3-phenylisoxazol-4-yl]benzenesulfonic acid] the IC50 [1] was 51 µM and the IC50 [2] was > 100 µM.
In the case of `CC(C)c1noc(-c2ccccc2)c1-c1ccc(S(N)(=O)=O)cc1` [Example 15, 4-[3-isopropyl-5-phenylisoxazol-4-yl]benzenesulfonamide], the IC50 [1] is reported as 0.1 µM and the IC50 [2] is reported as 59 µM.
In the case of `Cc1noc(-c2ccccc2)c1-c1ccc(S(C)(=O)=O)cc1` [Example 27, 3-Methyl-4-(4-methylsulfonylphenyl)-5-phenylisoxazole], the IC50 [1] is reported as 46 µM and the IC50 [2] is reported as > 100 µM.
